Experimental data: patent publication US5663331A, “Cephalosporin compounds” (Il-Dong Pharm. Co., Ltd., priority 1992, dated 1997)
Converted amounts (≈) assume the structure as drawn.

Tests used:
Format in all cases: cell-based
[1] = test system: Streptococcus faecalis ATCC 10541; experiment: MIC, two-fold dilution method, Streptococcus faecalis ATCC 10541; settings: 10^6 CFU per ml, 37° C., 18 to 20 hours; for MIC: Enterococcus faecalis, ATCC10541, Muller Hinton Broth, read-out: Antibacterial Activity (MIC); for Antibacterial Activity (MIC): Muller Hinton Broth
Procedure: (§1) In order to illustrate the usefulness of the invented compounds, the minimal inhibitory concentrations-(MIC) thereof against standard strains were determined and compared with Cefotaxime, a known compound. Also, the in vitro antibacterial activity was determined by a two-fold dilution method as described below: That is, the two-fold serial dilutions of the compound were made and dispersed in Muller Hinton Broth medium. Standard test strain which had the 10^6 CFU per ml was inoculated on the medium, and was incubated at 37° C. for 18 to 20 hours.

[2] = test system: Klebsiella pneumoniae ATCC 10031; experiment: MIC, two-fold dilution method, Klebsiella pneumoniae ATCC 10031; settings: 10^6 CFU per ml, 37° C., 18 to 20 hours; for MIC: ATCC10031, Muller Hinton Broth, read-out: Antibacterial Activity (MIC); for Antibacterial Activity (MIC): Muller Hinton Broth
Procedure: as §1

[3] = test system: Staphylococcus epidermidis ATCC 12228; experiment: MIC, two-fold dilution method, Staphylococcus epidermidis ATCC 12228; settings: 10^6 CFU per ml, 37° C., 18 to 20 hours; for MIC: ATCC12228, Muller Hinton Broth, read-out: Antibacterial Activity (MIC); for Antibacterial Activity (MIC): Muller Hinton Broth
Procedure: as §1

[4] = test system: Pseudomonas aeurginosa NCTC 10490; experiment: MIC, two-fold dilution method, Pseudomonas aeurginosa NCTC 10490; settings: 10^6 CFU per ml, 37° C., 18 to 20 hours; for MIC: NCTC10490, Muller Hinton Broth, read-out: Antibacterial Activity (MIC); for Antibacterial Activity (MIC): Muller Hinton Broth
Procedure: as §1

[5] = test system: Bacillus subtilis ATCC 6633; experiment: MIC, two-fold dilution method, Bacillus subtilis ATCC 6633; settings: 10^6 CFU per ml, 37° C., 18 to 20 hours; for MIC: ATCC6633, Muller Hinton Broth, read-out: Antibacterial Activity (MIC); for Antibacterial Activity (MIC): Muller Hinton Broth
Procedure: as §1

[6] = test system: Staphylococcus aureus ATCC 65389; experiment: MIC, two-fold dilution method, Staphylococcus aureus ATCC 65389; settings: 10^6 CFU per ml, 37° C., 18 to 20 hours; for MIC: ATCC65389, Muller Hinton Broth, read-out: Antibacterial Activity (MIC); for Antibacterial Activity (MIC): Muller Hinton Broth
Procedure: as §1

[7] = test system: Esherichia coli ATCC 25922; experiment: MIC, two-fold dilution method, Esherichia coli ATCC 25922; settings: Muller Hinton Broth, 10^6 CFU per ml, 37° C., 18 to 20 hours; for MIC: read-out: Antibacterial Activity (MIC)
Procedure: as §1

| MIC [1] [µg/mL] | MIC [2] [µg/mL] | MIC [3] [µg/mL] | MIC [4] [µg/mL] | MIC [5] [µg/mL] | MIC [6] [µg/mL] | MIC [7] [µg/mL] | Antibacterial Activity (MIC) [1] [µg/mL] | Antibacterial Activity (MIC) [2] [µg/mL] | Antibacterial Activity (MIC) [3] [µg/mL] | Antibacterial Activity (MIC) [4] [µg/mL] | Antibacterial Activity (MIC) [5] [µg/mL] | Antibacterial Activity (MIC) [6] [µg/mL] | Antibacterial Activity (MIC) [7] [µg/mL] | Structure (SMILES) |
| --- | --- | --- | --- | --- | --- | --- | --- | --- | --- | --- | --- | --- | --- | --- |
| – | – | – | – | – | – | – | 0.2 | 0.78 | 0.2 | 1.56 | 0.05 | 0.39 | 1.56 | C#CCO/N=C(\C(=O)NC1C(=O)N2C(C(=O)[O-])=C(CSc3cc[n+](C4CC4)c4cc(N5CCNCC5C)c(F)cc34)CS[C@H]12)c1csc(N)n1 (stereo partly drawn) [Compound I-44, 7-[(Z)-2-(2-aminothiazol-4-yl)-2-(propargyloxyimino)acetamido]-3-[1-cyclopropyl-6-fluoro-7-(2-methylpiperazinyl)quinolinium-4-yl]thiomethyl-3-cephem-4-carboxylate] |
| 0.2 (≈ 0.276 µM) | 0.39 (≈ 0.538 µM) | 0.78 (≈ 1.08 µM) | 0.39 (≈ 0.538 µM) | 0.2 (≈ 0.276 µM) | 0.78 (≈ 1.08 µM) | 6.25 (≈ 8.62 µM) | – | – | – | – | – | – | – | C=CCO/N=C(\C(=O)NC1C(=O)N2C(C(=O)[O-])=C(CSc3cc[n+](C4CC4)c4cc(N5CCNCC5)c(F)cc34)CS[C@H]12)c1csc(N)n1 (stereo partly drawn) [Compound I-25, 7-[(Z)-2-(2-aminothiazol-4-yl)-2-(allyloxyimino)acetamido]-3-(1-cyclopropyl-6-fluoro-7-piperazinylquinolinium-4-yl)thiomethyl-3-cephem-4-carboxylate] |
| – | – | – | – | – | – | – | 0.78 | 1.56 | 1.56 | 1.56 | 0.39 | 3.13 | 0.78 | C#CCO/N=C(\C(=O)NC1C(=O)N2C(C(=O)[O-])=C(CSc3cc[n+](CC=C)c4cc(N5CCNCC5C)c(F)cc34)CS[C@H]12)c1csc(N)n1 (stereo partly drawn) [Compound I-52, 7-[(Z)-2-(2-aminothiazol-4-yl)-2-(propargyloxyimino)acetamido]-3-[1-allyl-6-fluoro-7-(2-methylpiperazinyl)quinolinium-4-yl]thiomethyl-3-cephem-4-carboxylate] |
| 0.39 (≈ 0.54 µM) | 6.25 (≈ 8.65 µM) | 0.78 (≈ 1.08 µM) | 3.13 (≈ 4.33 µM) | 0.2 (≈ 0.277 µM) | 0.78 (≈ 1.08 µM) | 3.13 (≈ 4.33 µM) | – | – | – | – | – | – | – | C#CCO/N=C(\C(=O)NC1C(=O)N2C(C(=O)[O-])=C(CSc3cc[n+](C4CC4)c4cc(N5CCNCC5)c(F)cc34)CS[C@H]12)c1csc(N)n1 (stereo partly drawn) [Compound I-41, 7-[(Z)-2-(2-aminothiazol-4-yl)-2-(propargyloxyimino)acetamido]-3-(1-cyclopropyl-6-fluoro-7-piperazinylquinolinium-4-yl)thiomethyl-3-cephem-4-carboxylate] |
| 0.2 (≈ 0.275 µM) | 0.2 (≈ 0.275 µM) | 0.1 (≈ 0.138 µM) | 1.56 (≈ 2.15 µM) | 0.2 (≈ 0.275 µM) | 0.1 (≈ 0.138 µM) | 1.56 (≈ 2.15 µM) | – | – | – | – | – | – | – | C=CCO/N=C(\C(=O)NC1C(=O)N2C(C(=O)[O-])=C(CSc3cc[n+](C)c4cc(N5CCN(CC)CC5)c(F)cc34)CSC12)c1csc(N)n1 (stereo not drawn) [Compound I-23, 7-[(Z)-2-(2-aminothiazol-4-yl)-2-(allyloxyimino)acetamido]-3-[1-methyl-6-fluoro-7-(1-ethylpiperazinyl)quinolinium-4-yl]thiomethyl-3-cephem-4-carboxylate] |
| 0.2 (≈ 0.276 µM) | 6.25 (≈ 8.62 µM) | 0.39 (≈ 0.538 µM) | 6.25 (≈ 8.62 µM) | 0.78 (≈ 1.08 µM) | 0.78 (≈ 1.08 µM) | 12.5 (≈ 17.2 µM) | – | – | – | – | – | – | – | C#CCO/N=C(\C(=O)NC1C(=O)N2C(C(=O)[O-])=C(CSc3cc[n+](CC)c4cc(N5CCN(C)CC5)c(F)cc34)CSC12)c1csc(N)n1 (stereo not drawn) [Compound I-46, 7-[(Z)-2-(2-aminothiazol-4-yl)-2-(propargyloxyimino)acetamido]-3-[1-ethyl-6-fluoro-7-(N-methylpiperazinyl)quinolinium-4-yl]thiomethyl-3-cephem-4-carboxylate] |
| 0.39 (≈ 0.518 µM) | 0.78 (≈ 1.04 µM) | 0.78 (≈ 1.04 µM) | 0.78 (≈ 1.04 µM) | 0.39 (≈ 0.518 µM) | 0.78 (≈ 1.04 µM) | 1.56 (≈ 2.07 µM) | – | – | – | – | – | – | – | C=CCO/N=C(\C(=O)NC1C(=O)N2C(C(=O)[O-])=C(CSc3cc[n+](CC=C)c4cc(N5CCN(CC)CC5)c(F)cc34)CSC12)c1csc(N)n1 (stereo not drawn) [Compound I-35, 7-[(Z)-2-(2-aminothiazol-4-yl)-2-(allyloxyimino)acetamido]-3-[1-allyl-6-fluoro-7-(1-ethylpiperazinyl)quinolinium-4-yl]thiomethyl-3-cephem-4-carboxylate] |

Second part, the molecule before the results:

| Structure (SMILES) | MIC [1] [µg/mL] | MIC [2] [µg/mL] | MIC [3] [µg/mL] | MIC [4] [µg/mL] | MIC [5] [µg/mL] | MIC [6] [µg/mL] | MIC [7] [µg/mL] | Antibacterial Activity (MIC) [1] [µg/mL] | Antibacterial Activity (MIC) [2] [µg/mL] | Antibacterial Activity (MIC) [3] [µg/mL] | Antibacterial Activity (MIC) [4] [µg/mL] | Antibacterial Activity (MIC) [5] [µg/mL] | Antibacterial Activity (MIC) [6] [µg/mL] | Antibacterial Activity (MIC) [7] [µg/mL] |
| --- | --- | --- | --- | --- | --- | --- | --- | --- | --- | --- | --- | --- | --- | --- |
| C=CCO/N=C(\C(=O)NC1C(=O)N2C(C(=O)[O-])=C(CSc3cc[n+](C)c4cc(N5CCN(C)CC5)c(F)cc34)CSC12)c1csc(N)n1 (stereo not drawn) [Compound I-22, 7-[(Z)-2-(2-aminothiazol-4-yl)-2-(allyloxyimino)acetamido]-3-[1-methyl-6-fluoro-7-(N-methylpiperazinyl)quinolinium-4-yl]thiomethyl-3-cephem-4-carboxylate] | 0.013 (≈ 0.0182 µM) | 0.39 (≈ 0.547 µM) | 0.1 (≈ 0.14 µM) | 3.13 (≈ 4.39 µM) | 0.39 (≈ 0.547 µM) | 0.2 (≈ 0.281 µM) | 6.25 (≈ 8.77 µM) | – | – | – | – | – | – | – |
| CO/N=C(\C(=O)NC1C(=O)N2C(C(=O)[O-])=C(CSc3cc[n+](C4CC4)c4cc(N5CCNCC5C)c(F)cc34)CS[C@H]12)c1csc(N)n1 (stereo partly drawn) [Compound I-8, 7-[(Z)-2-(2-aminothiazol-4-yl)-2-(methoxyimino)acetamido]-3-[1-cyclopropyl-6-fluoro-7-(2-methylpiperazinyl)quinolinium-4-yl]thiomethyl-3-cephem-4-carboxylate] | – | – | – | – | – | – | – | 0.2 | 0.05 | 0.2 | 0.39 | 0.2 | 0.39 | 0.78 |
| CCN1CCN(c2cc3c(cc2F)c(SCC2=C(C(=O)[O-])N4C(=O)C(NC(=O)/C(=N\OC)c5csc(N)n5)C4SC2)cc[n+]3C2CC2)CC1 (stereo not drawn) [Compound I-7, 7-[(Z)-2-(2-aminothiazol-4-yl)-2-(methoxyimino)acetamido]-3-3-[1-cyclopropyl-6-fluoro-7-(1-ethylpiperazinyl)quinolinium-4-yl]-thiomethyl-3-cephem-4-carboxylate] | 0.05 (≈ 0.0688 µM) | 0.05 (≈ 0.0688 µM) | 0.2 (≈ 0.275 µM) | 0.39 (≈ 0.537 µM) | 0.2 (≈ 0.275 µM) | 0.39 (≈ 0.537 µM) | 0.78 (≈ 1.07 µM) | – | – | – | – | – | – | – |
| CC[n+]1ccc(SCC2=C(C(=O)[O-])N3C(=O)C(NC(=O)/C(=N\OC)c4csc(N)n4)C3SC2)c2cc(F)c(N3CCN(C)CC3)cc21 (stereo not drawn) [Compound I-10, 7-[(Z)-2-(2-aminothiazol-4-yl)-2-(methoxyimino)acetamido]-3-(1-ethyl-6-fluoro-7-(N-methylpiperazinyl)quinolinium-4-yl]thiomethyl-3-cephem-4-carboxylate] | 1.56 (≈ 2.23 µM) | 0.78 (≈ 1.11 µM) | 1.56 (≈ 2.23 µM) | 6.25 (≈ 8.92 µM) | 0.39 (≈ 0.556 µM) | 0.39 (≈ 0.556 µM) | 12.5 (≈ 17.8 µM) | – | – | – | – | – | – | – |
| CO/N=C(\C(=O)NC1C(=O)N2C(C(=O)[O-])=C(CSc3cc[n+](C)c4cc(N5CCN(C)CC5)c(F)cc34)CSC12)c1csc(N)n1 (stereo not drawn) [Compound I-2, 7-[(Z)-2-(2-aminothiazol-4-yl)-2-(methoxyimino)acetamido]-3-[1-methyl-6-fluoro-7-(N-methylpiperazinyl)quinolinium-4-yl]thiomethyl-3-cephem-4-carboxylate] | 0.39 (≈ 0.568 µM) | 0.39 (≈ 0.568 µM) | 0.78 (≈ 1.14 µM) | 3.13 (≈ 4.56 µM) | 0.39 (≈ 0.568 µM) | 1.56 (≈ 2.27 µM) | 12.5 (≈ 18.2 µM) | – | – | – | – | – | – | – |
| CO/N=C(\C(=O)N[C@@H]1C(=O)N2C(C(=O)O)=C(COC(C)=O)CS[C@H]12)c1csc(N)n1 [CTX, Cefotaxime, reference compound] | 0.39 (≈ 0.856 µM) | 0.39 (≈ 0.856 µM) | 0.78 (≈ 1.71 µM) | 1.56 (≈ 3.43 µM) | 0.2 (≈ 0.439 µM) | 0.78 (≈ 1.71 µM) | 0.78 (≈ 1.71 µM) | – | – | – | – | – | – | – |
| CC[n+]1ccc(SCC2=C(C(=O)[O-])N3C(=O)C(NC(=O)/C(=N\OC)c4csc(N)n4)C3SC2)c2cc(F)c(N3CCNCC3)cc21 (stereo not drawn) [Compound I-9, 7-[(Z)-2-(2-aminothiazol-4-yl)-2-(methoxyimino)acetamido]-3-(1-ethyl-6-fluoro-7-piperazinylquinolinum-4-yl)thiomethyl-3-cephem-4-carboxylate] | 0.1 (≈ 0.146 µM) | 0.78 (≈ 1.14 µM) | 0.2 (≈ 0.291 µM) | 3.13 (≈ 4.56 µM) | 0.1 (≈ 0.146 µM) | 0.2 (≈ 0.291 µM) | 1.56 (≈ 2.27 µM) | – | – | – | – | – | – | – |
| C=CC[n+]1ccc(SCC2=C(C(=O)[O-])N3C(=O)C(NC(=O)/C(=N\OC)c4csc(N)n4)C3SC2)c2cc(F)c(N3CCN(CC)CC3)cc21 (stereo not drawn) [Compound I-15, 7-[(Z)-2(2-aminothiazol-4-yl)-2-(methoxyimino)acetamido]-3-[1-allyl-6-fluoro-7-(1-ethylpiperazinyl)quinolinium-4-yl]thiomethyl-3-cephem-4-carboxylate] | 0.39 (≈ 0.537 µM) | 0.39 (≈ 0.537 µM) | 0.78 (≈ 1.07 µM) | 1.56 (≈ 2.15 µM) | 0.1 (≈ 0.138 µM) | 0.2 (≈ 0.275 µM) | 1.56 (≈ 2.15 µM) | – | – | – | – | – | – | – |
